Measurements from the supplement of paper PMC6045584.
± gives the standard deviation of the averaged measurements.

Experiments:
2-METHOXYESTRADIOL = compound: COc1cc2c(cc1O)CC[C@@H]1[C@@H]2CC[C@]2(C)[C@@H](O)CC[C@@H]12 [2-METHOXYESTRADIOL]; experiment: surviving fraction relative to DMSO-only wells; higher = less growth inhibition; conditions: exposure time: 5 days
In short: (§1)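 Lines were retained only if, across three screens, replicate Pearson r was >0.7 and median Z' was >0.3. Viability was measured as CellTiter-Glo luminescence and reported as surviving fraction relative to the median of DMSO-only wells. Readings followed 10 minutes at room temperature, after log-phase tumour cells seeded at 250–500 per well in 384-well plates had been exposed, from 24 hours after seeding, continuously for five days to inhibitors at 0.5, 1, 5, 10, 50, 100, 500 and 1000 nM.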

LAPATINIB = compound: CS(=O)(=O)CCNCc1ccc(-c2ccc3ncnc(Nc4ccc(OCc5cccc(F)c5)c(Cl)c4)c3c2)o1 [LAPATINIB]; experiment: as above; conditions: exposure time: 5 days
In short: as §1

Test System | surviving fraction (2-METHOXYESTRADIOL; 0.5 nM) | surviving fraction (2-METHOXYESTRADIOL; 1 nM) | surviving fraction (2-METHOXYESTRADIOL; 5 nM) | surviving fraction (2-METHOXYESTRADIOL; 10 nM) | surviving fraction (2-METHOXYESTRADIOL; 50 nM) | surviving fraction (2-METHOXYESTRADIOL; 100 nM) | surviving fraction (2-METHOXYESTRADIOL; 500 nM) | surviving fraction (2-METHOXYESTRADIOL; 1000 nM) | surviving fraction (LAPATINIB; 0.5 nM) | surviving fraction (LAPATINIB; 1 nM) | surviving fraction (LAPATINIB; 5 nM) | surviving fraction (LAPATINIB; 10 nM) | surviving fraction (LAPATINIB; 50 nM) | surviving fraction (LAPATINIB; 100 nM) | surviving fraction (LAPATINIB; 500 nM) | surviving fraction (LAPATINIB; 1000 nM)
HCC1395 BREAST | 0.926 ± 0.081 | 1.15 ± 0.08 | 1.14 ± 0.035 | 1.25 ± 0.085 | 1.24 ± 0.027 | 1.22 ± 0.072 | 1.17 ± 0.083 | 0.907 ± 0.088 | 0.928 ± 0.083 | 0.972 ± 0.072 | 0.998 ± 0.082 | 0.975 ± 0.16 | 0.919 ± 0.12 | 1.09 ± 0.061 | 1.02 ± 0.083 | 0.993 ± 0.15
HCC1806 BREAST | 0.946 ± 0.076 | 1.02 ± 0.052 | 1.03 ± 0.083 | 1.11 ± 0.052 | 1.06 ± 0.053 | 1.15 ± 0.079 | 1.06 ± 0.11 | 0.808 ± 0.036 | 1.01 ± 0.083 | 1.12 ± 0.028 | 1.09 ± 0.04 | 1.09 ± 0.079 | 0.992 ± 0.018 | 1.11 ± 0.033 | 0.715 ± 0.025 | 0.65 ± 0.082
HCC1954 BREAST | 0.93 ± 0.027 | 1.09 ± 0.072 | 1.049 ± 0.0014 | 1.05 ± 0.12 | 0.845 ± 0.019 | 0.742 ± 0.1 | 0.716 ± 0.034 | 0.515 ± 0.029 | 0.905 ± 0.087 | 1.08 ± 0.058 | 1.04 ± 0.023 | 1.01 ± 0.12 | 0.823 ± 0.037 | 0.804 ± 0.092 | 0.387 ± 0.016 | 0.387 ± 0.039
HCT15 LARGE INTESTINE | 0.947 ± 0.027 | 0.926 ± 0.028 | 0.959 ± 0.057 | 0.914 ± 0.04 | 1.01 ± 0.021 | 0.929 ± 0.1 | 0.0957 ± 0.014 | 0.0547 ± 0.0085 | 1.01 ± 0.082 | 1.12 ± 0.098 | 1.04 ± 0.059 | 1.06 ± 0.076 | 0.988 ± 0.078 | 1.08 ± 0.07 | 1.04 ± 0.032 | 1.05 ± 0.071
HELA CERVIX | 0.982 ± 0.043 | 1 ± 0.031 | 0.985 ± 0.013 | 0.938 ± 0.04 | 1.06 ± 0.064 | 1.11 ± 0.077 | 0.593 ± 0.045 | 0.0965 ± 0.0045 | 1.08 ± 0.1 | 1.23 ± 0.065 | 1.05 ± 0.043 | 1.04 ± 0.038 | 1.1 ± 0.029 | 1.15 ± 0.12 | 1.16 ± 0.09 | 1.16 ± 0.037
HOS BONE | 0.996 ± 0.013 | 0.992 ± 0.029 | 1.02 ± 0.02 | 1.004 ± 0.0095 | 1.04 ± 0.015 | 1.05 ± 0.025 | 0.96 ± 0.02 | 0.158 ± 0.011 | 1.017 ± 0.01 | 1.082 ± 0.01 | 1.059 ± 0.01 | 1.03 ± 0.011 | 1.05 ± 0.023 | 1.05 ± 0.034 | 1.039 ± 0.0051 | 1.04 ± 0.018
HOSMNG BONE | 0.97 ± 0.12 | 0.966 ± 0.034 | 0.957 ± 0.1 | 1 ± 0.046 | 1.05 ± 0.11 | 1.03 ± 0.084 | 0.652 ± 0.053 | 0.168 ± 0.011 | 0.92 ± 0.06 | 1.04 ± 0.05 | 0.88 ± 0.081 | 0.827 ± 0.12 | 0.848 ± 0.064 | 0.867 ± 0.11 | 0.89 ± 0.084 | 1.06 ± 0.08
HSSYII SYNOVIAL | 0.901 ± 0.024 | 0.926 ± 0.01 | 0.923 ± 0.043 | 0.997 ± 0.046 | 0.915 ± 0.018 | 0.764 ± 0.013 | 0.139 ± 0.0043 | 0.0593 ± 0.0049 | 0.98 ± 0.042 | 0.943 ± 0.022 | 0.947 ± 0.051 | 0.973 ± 0.033 | 0.947 ± 0.064 | 1.04 ± 0.087 | 0.969 ± 0.034 | 0.927 ± 0.01
HT1080 SOFT TISSUE | 1.01 ± 0.011 | 1.02 ± 0.018 | 1.05 ± 0.016 | 0.987 ± 0.058 | 1.01 ± 0.043 | 0.999 ± 0.033 | 0.756 ± 0.049 | 0.313 ± 0.028 | 0.997 ± 0.044 | 1.06 ± 0.013 | 1.02 ± 0.017 | 1.05 ± 0.016 | 1.04 ± 0.016 | 1.02 ± 0.048 | 1.01 ± 0.021 | 1.05 ± 0.076
HU09 BONE | 1.02 ± 0.055 | 0.959 ± 0.03 | 1.02 ± 0.024 | 1.1 ± 0.1 | 1.12 ± 0.081 | 1.08 ± 0.095 | 0.512 ± 0.015 | 0.159 ± 0.029 | 0.937 ± 0.082 | 0.937 ± 0.031 | 1.04 ± 0.1 | 1.04 ± 0.089 | 1 ± 0.056 | 1.04 ± 0.13 | 0.891 ± 0.043 | 0.798 ± 0.021
HUO3N1 BONE | 1.01 ± 0.012 | 0.994 ± 0.037 | 1.05 ± 0.05 | 1.03 ± 0.057 | 1.07 ± 0.022 | 1.02 ± 0.041 | 0.87 ± 0.059 | 0.537 ± 0.03 | 1.05 ± 0.044 | 0.978 ± 0.069 | 1.08 ± 0.038 | 1.084 ± 0.01 | 1.02 ± 0.037 | 1.06 ± 0.043 | 0.876 ± 0.15 | 1 ± 0.065
JIMT1 BREAST | 0.985 ± 0.032 | 1.04 ± 0.029 | 1.03 ± 0.023 | 1 ± 0.031 | 1.09 ± 0.013 | 1.05 ± 0.021 | 0.762 ± 0.053 | 0.403 ± 0.045 | 0.991 ± 0.035 | 1.02 ± 0.04 | 1.05 ± 0.039 | 1.01 ± 0.024 | 1 ± 0.035 | 1.01 ± 0.066 | 0.907 ± 0.065 | 0.783 ± 0.019
JURKAT HAEMATOPOIETIC AND LYMPHOID TISSUE | 1.08 ± 0.021 | 1.08 ± 0.014 | 1.03 ± 0.005 | 1.02 ± 0.033 | 1.02 ± 0.032 | 0.993 ± 0.016 | 0.043 ± 0.001 | 0.042 ± 0.001 | 0.997 ± 0.078 | 1.02 ± 0.061 | 0.936 ± 0.037 | 0.959 ± 0.017 | 0.933 ± 0.055 | 0.947 ± 0.025 | 1.01 ± 0.012 | 1.011 ± 0.0081
KPD BONE | 0.992 ± 0.043 | 0.964 ± 0.04 | 1.02 ± 0.066 | 1.03 ± 0.014 | 1.08 ± 0.031 | 1.07 ± 0.024 | 0.784 ± 0.047 | 0.551 ± 0.026 | 0.984 ± 0.055 | 1.08 ± 0.03 | 1.05 ± 0.02 | 1.03 ± 0.049 | 1.09 ± 0.06 | 1.08 ± 0.066 | 0.956 ± 0.08 | 0.951 ± 0.094
LM7 BONE | 0.969 ± 0.063 | 1.03 ± 0.016 | 1.06 ± 0.022 | 1.01 ± 0.056 | 1.12 ± 0.077 | 1.03 ± 0.13 | 0.5347 ± 0.0023 | 0.264 ± 0.024 | 0.936 ± 0.046 | 1.07 ± 0.079 | 1.1 ± 0.034 | 1.1 ± 0.042 | 0.99 ± 0.057 | 1.06 ± 0.02 | 0.991 ± 0.022 | 0.955 ± 0.041
LNCAP PROSTATE | 1.01 ± 0.039 | 0.922 ± 0.039 | 0.975 ± 0.094 | 0.901 ± 0.092 | 0.884 ± 0.13 | 0.809 ± 0.091 | 0.681 ± 0.033 | 0.208 ± 0.0072 | 0.894 ± 0.055 | 0.981 ± 0.02 | 0.917 ± 0.086 | 0.981 ± 0.033 | 0.937 ± 0.061 | 0.891 ± 0.038 | 0.995 ± 0.035 | 0.951 ± 0.21
MCF7 BREAST | 0.846 ± 0.015 | 0.837 ± 0.017 | 0.857 ± 0.0097 | 0.8506 ± 0.0053 | 0.903 ± 0.027 | 0.924 ± 0.083 | 0.943 ± 0.048 | 0.685 ± 0.086 | 0.988 ± 0.053 | 0.921 ± 0.032 | 0.931 ± 0.049 | 0.962 ± 0.043 | 0.961 ± 0.057 | 0.946 ± 0.096 | 0.946 ± 0.061 | 0.916 ± 0.023
MDAMB134 BREAST | 0.832 ± 0.24 | 0.884 ± 0.12 | 0.777 ± 0.041 | 0.916 ± 0.18 | 0.755 ± 0.097 | 0.717 ± 0.12 | 0.56 ± 0.0085 | 0.619 ± 0.15 | 0.967 ± 0.017 | 0.963 ± 0.1 | 0.975 ± 0.028 | 1 ± 0.14 | 1.04 ± 0.19 | 0.966 ± 0.083 | 0.956 ± 0.071 | 0.806 ± 0.062
MDAMB157 BREAST | 0.873 ± 0.086 | 0.947 ± 0.022 | 0.935 ± 0.05 | 0.983 ± 0.12 | 0.959 ± 0.012 | 0.932 ± 0.013 | 0.76 ± 0.055 | 0.31 ± 0.066 | 1 ± 0.11 | 0.991 ± 0.11 | 1.09 ± 0.034 | 1.04 ± 0.095 | 1.01 ± 0.064 | 1.008 ± 0.0098 | 0.951 ± 0.082 | 0.931 ± 0.041
MDAMB231 BREAST | 0.964 ± 0.0098 | 0.949 ± 0.011 | 0.9675 ± 0.0069 | 0.963 ± 0.018 | 0.983 ± 0.027 | 0.989 ± 0.027 | 0.545 ± 0.025 | 0.258 ± 0.012 | 0.9471 ± 0.0072 | 1.01 ± 0.032 | 0.986 ± 0.029 | 0.9838 ± 0.0088 | 0.96 ± 0.019 | 1.02 ± 0.012 | 1.013 ± 0.0062 | 1.01 ± 0.021
MDAMB361 BREAST | 0.843 ± 0.082 | 0.827 ± 0.11 | 0.865 ± 0.046 | 0.829 ± 0.11 | 0.788 ± 0.043 | 0.8 ± 0.083 | 0.666 ± 0.014 | 0.701 ± 0.081 | 0.891 ± 0.12 | 0.823 ± 0.11 | 0.902 ± 0.096 | 0.874 ± 0.065 | 0.864 ± 0.028 | 0.711 ± 0.041 | 0.724 ± 0.096 | 0.672 ± 0.069
